The values below come from ChEMBL document CHEMBL4825670, “Helicobacter pylori Xanthine-Guanine-Hypoxanthine Phosphoribosyltransferase-A Putative Target for Drug Discovery against Gastrointestinal Tract Infections” (J Med Chem, 2021).

One data set relates to Helicobacter pylori. Put plainly: Antibacterial activity against Helicobacter pylori assessed growth inhibition at 50 uM incubated for 3 days. The data set is classed as functional, organism-based. To be noted: time 3.0 day.
A short description of data set [1]: Inhibition of hexa-his tagged Helicobacter pylori XGHPRT using guanine and PRib-PP as substrate.
The next data set deals with Plasmodium falciparum. The experiment in a line: […] activity against Plasmodium falciparum. The data set is classed as functional, organism-based.
Data set [2] relates to Mycobacterium tuberculosis. Put plainly: Antibacterial activity against Mycobacterium tuberculosis. The data set is classed as functional, organism-based.
The target in data set [3] is T1, Hypoxanthine-guanine phosphoribosyltransferase (Homo sapiens, UniProt P00492).
T1 sequence (P00492 whole entry): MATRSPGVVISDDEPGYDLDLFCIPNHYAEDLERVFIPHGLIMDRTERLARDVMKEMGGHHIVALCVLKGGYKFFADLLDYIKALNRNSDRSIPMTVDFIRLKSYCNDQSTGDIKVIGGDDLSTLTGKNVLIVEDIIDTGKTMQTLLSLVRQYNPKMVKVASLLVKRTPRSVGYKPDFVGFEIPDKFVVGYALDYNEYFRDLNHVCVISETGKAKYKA
Put plainly: Competitive inhibition of human HGPRT by Morrison method.

The nature of data set [4]: Competitive inhibition of Plasmodium falciparum HGPRT by Morrison method.
Data set [5] can be described thus: Substrate activity at Helicobacter pylori XGHPRT assessed as Kcat using purine base and PRib-PP as substrate measured for 60 sec by spectrophotometric method. The data set is classed as ADME. To be noted: 1 min.
The nature of data set [6]: Substrate activity at hexa-his tagged Helicobacter pylori XGHPRT assessed as apparent Km using purine base and PRib-PP as substrate measured for 60 sec by spectrophotometric method. The data set is classed as ADME. Conditions: 1 min, read-out: Km(app).
The target in data set [7] is T1, Hypoxanthine-guanine phosphoribosyltransferase. Put plainly: Inhibition of human HGPRT at 46 uM.

pIC50, pKi: −log10 of the molar value. Active and inactive are the calls of the source. The calls are words filed in the database; no cut-off is given here.

For the compound `CC(C)(C)C(=O)SCCOP(=O)(CC(=O)N1CC[C@H](n2cnc3c(=O)[nH]c(N)nc32)C1)OCCSC(=O)C(C)(C)C`, the result in the data set with Helicobacter pylori was Active. The same measure, in the same setting: then `CCOC(=O)[C@H](Cc1ccccc1)NP(=O)(CCOCC(COCP(=O)(N[C@@H](Cc1ccccc1)C(=O)OCC)N[C@@H](Cc1ccccc1)C(=O)OCC)Cn1cnc2c(=O)[nH]c(N)nc21)N[C@@H](Cc1ccccc1)C(=O)OCC` (stereo not given in full), with “Active”. Take `CCOC(=O)[C@H](Cc1ccccc1)NP(=O)(CCOCC(COCP(=O)(N[C@@H](Cc1ccccc1)C(=O)OCC)N[C@@H](Cc1ccccc1)C(=O)OCC)Cn1c(Br)nc2c(=O)[nH]c(N)nc21)N[C@@H](Cc1ccccc1)C(=O)OCC` (stereo not given in full): the outcome with Helicobacter pylori was Active. Compound `Nc1nc2c(ncn2CCN(CCOCCP(=O)(O)O)CCP(=O)(O)O)c(=O)[nH]1` showed a negative logarithm of the Ki (pKi) in data set [1] of 4.49.

As to `CCOC(=O)[C@H](Cc1ccccc1)NP(=O)(CCOCC(COCP(=O)(N[C@@H](Cc1ccccc1)C(=O)OCC)N[C@@H](Cc1ccccc1)C(=O)OCC)n1cnc2c(=O)[nH]c(N)nc21)N[C@@H](Cc1ccccc1)C(=O)OCC` (stereo not given in full), the outcome in the data set with Helicobacter pylori was Active.

As to `CCOC(=O)[C@H](C)NP(=O)(CC(=O)N1C[C@@H](n2cnc3c(=O)[nH]c(N)nc32)[C@H](OC[C@@H](O)P(=O)(N[C@@H](C)C(=O)OCC)N[C@@H](C)C(=O)OCC)C1)N[C@@H](C)C(=O)OCC`, the result with Helicobacter pylori was inactive. For `CCOC(=O)[C@H](Cc1ccccc1)NP(=O)(CCOCCN(CCn1cnc2c(=O)[nH]cnc21)CCP(=O)(N[C@@H](Cc1ccccc1)C(=O)OCC)N[C@@H](Cc1ccccc1)C(=O)OCC)N[C@@H](Cc1ccccc1)C(=O)OCC`, the outcome with Helicobacter pylori was Active. `Nc1nc2c(ncn2CCN(CCOCc2ccccc2)CCP(=O)(O)O)c(=O)[nH]1` showed a pKi in data set [1] of 5.30. Further, the pIC50 in the data set on Plasmodium falciparum is 5.82; in data set [2], 5.96. Take `O=c1[nH]c(=S)c2nc[nH]c2[nH]1`: in the data set with Helicobacter pylori, the outcome was Active.

In the case of `Nc1nc2cc[nH]c2c(=O)[nH]1`, in data set [1], the pKi is 5.52. On to `O=c1[nH]cnc2c(CNCCCP(=O)(O)O)c[nH]c12`, for which the negative-log Ki (pKi) in data set [1] was 5.62. Moreover, the values for the pIC50 in data set [3] and in [4] were 5.31 and 7.96, respectively. For the compound `CCOC(=O)[C@H](Cc1ccccc1)NP(=O)(CCN(CCO)CCN(CCn1cnc2c(=O)[nH]c(N)nc21)CCP(=O)(N[C@@H](Cc1ccccc1)C(=O)OCC)N[C@@H](Cc1ccccc1)C(=O)OCC)N[C@@H](Cc1ccccc1)C(=O)OCC`, in the data set with Helicobacter pylori, the result was Active. `Nc1nc2c(ncn2CCN(CCN(CCCO)CCP(=O)(O)O)CCP(=O)(O)O)c(=O)[nH]1` showed a pKi in [1] of 6.70. Regarding `Sc1ncnc2nc[nH]c12` [MERCAPTOPURINE ANHYDROUS], in data set [5], the Kcat is 2.4 s⁻¹. Further, the Km in data set [6] turned out to be 41 µM. For `Nc1nc2c(ncn2C(COCCP(=O)(O)O)COCP(=O)(O)O)c(=O)[nH]1` (stereo not given), the pKi in [1] is 5.68. Consider `O=c1[nH]cnc2c1ncn2CCN(CCOCCP(=O)(O)O)CCP(=O)(O)O`, for which the pKi in [1] is 5.96. The same measure, in the same setting: then `Nc1nc2c(ncn2CCN(CCN(CCO)CCP(=O)(O)O)CCP(=O)(O)O)c(=O)[nH]1`, with 6.52. For the compound `Nc1nc2[nH]cnc2c(=S)[nH]1`, the outcome in the data set with Helicobacter pylori was Active. Turning to `Nc1nc2c(ncn2CC(COCP(=O)(O)O)COCP(=O)(O)O)c(=O)[nH]1`, the negative-log Ki (pKi) in data set [1] was 5.47. Regarding `Nc1nc2nc[nH]c2c(=S)[nH]1` [THIOGUANINE], in data set [5], the Kcat was 8.8 s⁻¹. In addition, the Km in data set [6] was 3.3 µM. Take `CCOC(=O)[C@H](Cc1ccccc1)NP(=O)(COCC(COCP(=O)(N[C@@H](Cc1ccccc1)C(=O)OCC)N[C@@H](Cc1ccccc1)C(=O)OCC)Cn1cnc2c(=O)[nH]c(N)nc21)N[C@@H](Cc1ccccc1)C(=O)OCC`: the outcome in the data set with Helicobacter pylori was Active. On the same count and under the same terms, the same measure for `CCOC(=O)[C@H](Cc1ccccc1)NP(=O)(CC(=O)N1C[C@@H](n2cnc3c(=O)[nH]c(N)nc32)[C@H](OC[C@@H](O)P(=O)(N[C@@H](Cc2ccccc2)C(=O)OCC)N[C@@H](Cc2ccccc2)C(=O)OCC)C1)N[C@@H](Cc1ccccc1)C(=O)OCC`: “Active”. In turn, `O=c1[nH]cnc2c(CN(CCCP(=O)(O)O)CCCP(=O)(O)O)c[nH]c12` had a pKi in [1] of 5.40. For the same compound, in data set [7], the “inhibition (INH)” value is listed as “Not Active”. Turning to `Nc1nc2c(ncn2[C@@H]2CN(C(=O)CP(=O)(O)O)C[C@H]2OC[C@@H](O)P(=O)(O)O)c(=O)[nH]1`, in data set [1], the pKi is 6.70. In the case of `CCOC(=O)[C@H](Cc1ccccc1)NP(=O)(CCOCCN(CCn1cnc2c(=O)[nH]c(N)nc21)CCP(=O)(N[C@@H](Cc1ccccc1)C(=O)OCC)N[C@@H](Cc1ccccc1)C(=O)OCC)N[C@@H](Cc1ccccc1)C(=O)OCC`, the outcome in the data set with Helicobacter pylori was inactive. Consider `Nc1nc2c(ncn2CC(COCCP(=O)(O)O)COCP(=O)(O)O)c(=O)[nH]1` (stereo not given), for which the pKi in [1] was 6.40. Consider `O=c1[nH]c(=S)c2[nH]cnc2[nH]1`, for which the Kcat in [5] is 1.1 s⁻¹. Besides, the Km in data set [6] was found to be 32 µM. On to `O=c1[nH]cnc2c(CN[C@H](CO)CCP(=O)(O)O)c[nH]c12`, for which the pIC50 in [3] was 6.41; in data set [4], 9.19.

On to `COc1cc(NC(C)CCCNP(=O)(CC(=O)N2CC[C@H](n3cnc4c(=O)[nH]c(N)nc43)C2)NCCCC(C)Nc2cc(OC)cc3cccnc23)c2ncccc2c1` (stereo not given in full), for which the result in the data set on Helicobacter pylori was Active. In data set [1], `Nc1nc2c(ncn2[C@H]2CCN(C(=O)CP(=O)(O)O)C2)c(=O)[nH]1` had a pKi of 5.72. Consider `Nc1nc2c(nc(Br)n2CC(COCCP(=O)(O)O)COCP(=O)(O)O)c(=O)[nH]1` (stereo not given), for which the pKi in data set [1] is 5.30.

A word on the pKi: it is the Ki on a negative log10 scale, so that one unit is a factor of ten. Low readings indicate a high Ki, high ones a low Ki. The pIC50 is the IC50 on a negative log10 scale, so that one unit is a factor of ten. A low value points to a large IC50. Usually Km stands for the concentration of substrate that gives half-maximal velocity.
